Data set [1] has as its system Plasmodium falciparum. Description: In vitro anti-malarial activity against Plasmodium falciparum, IC50 assay / [3H]-hypoxanthine incorporation assay. The data set is classed as cell-based. As to conditions: Erythrocyte, parasitized red blood cells, 48 hours.
Data set [2] is described as follows: Compound solubility determination (gross and equilibrium solubility; FaSSIF, FeSSIF, pH 7.4 PBS, pH 1.0 0.1N HCl, pH 4.5 sodium citrate). As to conditions: thermodynamic from solid. The data set is classed as physicochemical. On the procedure:
Compound Solubility Determination
An amount of 3 mg solid compound with LC-MS purity ≧95% was required. This amount was split between 3 different glass vials (1.8 ml volume each), placing 1 mg compound into each one.
Organic solvents of HPLC grade were used. Ultra pure water (Milli-Q grade) was used. Buffers were prepared with ultra pure water and filtered using 0.45μ cameo filters. The compositions of each solvent employed in this assay are described below (part III).
2. Determination of Equilibrium Solubility (Assuming Chemical Stability in the Desired Solvent is not a Problem).
For each of the three vial samples prepared as described above, in which the amount of compound was totally dissolved, the following procedure was subsequently carried out: • a) A small amount (approx. 0.1 mg) of additional solid compound was added to the vial to maintain an excess of the compound in the mixture in the form of undissolved solid. • b) The samples were magnetically stirred for 24 hr. If required, additional solid compound (0.1 mg) was added to maintain excess of it and then the samples were stirred again. • c) Then the samples were filtered (Millipore Milex filters nylon 0.2 um) and three aliquots were taken (one from each of the three vials) and analysed by LC-MS. • d) The pH of the final solution in each sample was measured with a pH-meter (WTW pH330i and a pH-electrode Sentix 41).
3. LC-MS Assay for Analytical Quantification
All filtered aliquots were analysed by LC-MS. The analysis was carried out with a Luna 5 μC18 (2) column 4.6×150 mm, using a HP1100 HPLC instrument interfaced with a Waters ZMD-2000 MS spectrometer. The concentration of the final sample as prepared above was calculated from that of a reference calibration curve obtained from serial dilutions of a 2 mM solution of the compound under investigation in DMSO (Aldrich cat. ref.: 27685-5) stock solution.
The analysis of all LC-MS data was performed with MassLynx 3.4 software. Statistical and graphic analysis of data was performed using Microsoft Excel. The concentration (uM) and solubility (ug/ml) for each compound was calculated using the peak areas from the sample and those from the calibration curve.
A) FaSSIF is a solvent which simulates the Fasted State of the Intestinal Fluid. (FaSSIF: Fasted State Simulated Intestinal Fluid).
B) FeSSIF is a solvent which simulates the Fed State of the Intestinal Fluid. (FeSSIF: Fed State Simulated Intestinal Fluid).
C) Solubility at pH 7.4 was determined in phosphate buffered saline (PBS) (Fluka cat. ref: 79383)
D) Solubility at pH 1.0 was determined in 0.1N HCl solution (Scharlau AL0744010C)
E) Solubility at pH 4.5 was determined in sodium citrate 0.5M solution. (Aldrich 25, 127-5)

Where [3] appears, read: 0.1N HCl solution, simulated gastric fluid, pH 1 (HCl), read-out: Solubility at pH 1 (HCl).
Where [4] appears, read: FaSSIF (fasted state simulated intestinal fluid), fassif, read-out: Solubility in FaSSIF.
[5] abbreviates: phosphate buffered saline (PBS), aqueous buffer, pH 7.4 (PBS), read-out: Solubility at pH 7.4 (PBS).
The mark [6] stands for this setting: sodium citrate 0.5M solution, aqueous buffer, pH 4.5 (Na citrate), read-out: Solubility at pH 4.5 (Na citrate).
[7] abbreviates: FeSSIF (fed state simulated intestinal fluid), fessif, read-out: Solubility in FeSSIF.

Converted amounts (≈) assume the structure as drawn. Like-named read-outs stand apart in the source and are kept apart here. A value given as a limit tells only on which side of the number the result lay.

As for `Cc1[nH]c(C)c(-c2ccc(-c3ccc(F)cc3)nc2)c(=O)c1Cl` [Example 36, 5-Chloro-6′-(4-fluorophenyl)-2,6-dimethyl-3,3′-bipyridin-4(1H)-one], the 50% inhibitory concentration (IC50) in data set [1] was < 0.125 µg/mL. The solubility at 24 h in data set [2] (setting [3]) was ≥ 50 µg/mL; in data set [2] (setting [4]), 1 to 5 µg/mL (≈ 3.04 to 15.2 µM); in data set [2] (setting [5]), 1 to 5 µg/mL (≈ 3.04 to 15.2 µM); in data set [2] (setting [6]), 1 to 5 µg/mL (≈ 3.04 to 15.2 µM).

Turning to `Cc1[nH]c(C)c(-c2ccc(-c3ccccc3F)nc2)c(=O)c1Cl` [Example 37, 5-Chloro-6′-(2-fluorophenyl)-2,6-dimethyl-3,3′-bipyridin-4(1H)-one], in data set [1], the IC50 is < 0.125 µg/mL. In addition, the solubility at 24 h in data set [2] (setting [3]) is ≥ 50 µg/mL; in data set [2] (setting [4]) it was 10 to 50 µg/mL (≈ 30.4 to 152 µM); in data set [2] (setting [5]), 10 to 50 µg/mL (≈ 30.4 to 152 µM); in data set [2] (setting [6]), 10 to 50 µg/mL (≈ 30.4 to 152 µM).

With `Cc1[nH]c(C)c(-c2ccc(CCc3cccc(C(F)(F)F)c3)nc2)c(=O)c1Cl` [Example 44, 5-Chloro-2,6-dimethyl-6′-{2-[3-(trifluoromethyl)phenyl]ethyl}-3,3′-bipyridin-4(1H)-one], the concentration for half-maximal inhibition (IC50) in data set [1] is < 0.125 µg/mL. Besides, the solubility at 24 h in data set [2] (setting [3]) was ≥ 50 µg/mL; in data set [2] (setting [4]) it was 10 to 50 µg/mL (≈ 24.6 to 123 µM); in data set [2] (setting [5]) it was 1 to 5 µg/mL (≈ 2.46 to 12.3 µM); in data set [2] (setting [6]) it was 10 to 50 µg/mL (≈ 24.6 to 123 µM).

Regarding `Cc1[nH]c(C)c(-c2ccc(CCc3ccc(C(F)(F)F)cc3)nc2)c(=O)c1Cl` [Example 45, 5-Chloro-2,6-dimethyl-6′-{2-[4-(trifluoromethyl)phenyl]ethyl}-3,3′-bipyridin-4(1H)-one], the 50% inhibitory concentration (IC50) in data set [1] was < 0.125 µg/mL. Moreover, the solubility at 24 h is ≥ 50 µg/mL in data set [2] (setting [3]), 10 to 50 µg/mL (≈ 24.6 to 123 µM) in data set [2] (setting [4]), 5 to 10 µg/mL (≈ 12.3 to 24.6 µM) in data set [2] (setting [5]) and 10 to 50 µg/mL (≈ 24.6 to 123 µM) in data set [2] (setting [6]).

Regarding `CCCCCCCc1ccc(-c2c(C)[nH]c(C)c(Cl)c2=O)cn1.Cl` [Example 48, 5-Chloro-6′-(n-heptyl)-2,6-dimethyl-3,3′-bipyridin-4(1H)-one], in data set [1], the IC50 was < 0.125 µg/mL. Also, the solubility at 24 h in data set [2] (setting [3]) is ≥ 50 µg/mL; in data set [2] (setting [4]), 10 to 50 µg/mL; in data set [2] (setting [5]), 1 to 5 µg/mL; in data set [2] (setting [6]), ≥ 50 µg/mL.

For the molecule `Cc1[nH]c(C)c(-c2ccc(Oc3ccc(OC(F)(F)F)cc3)nc2)c(=O)c1Cl` [Example 49, 5-Chloro-2,6-dimethyl-6′-({4-[(trifluoromethyl)oxy]phenyl}oxy)-3,3′-bipyridin-4(1H)-one], the IC50 in data set [1] is < 0.125 µg/mL. Moreover, the solubility at 24 h in data set [2] (setting [3]) was 5 to 10 µg/mL (≈ 12.2 to 24.3 µM); in data set [2] (setting [4]), < 1 µg/mL; in data set [2] (setting [7]), < 1 µg/mL; in data set [2] (setting [5]), < 1 µg/mL; in data set [2] (setting [6]), < 1 µg/mL.

Consider `CCCCCCCCCc1cnc(-c2c(C)[nH]c(C)c(Cl)c2=O)nc1` [Example 50, 3-Chloro-2,6-dimethyl-5-(5-nonyl-2-pyrimidinyl)-4(1H)-pyridinone], for which the IC50 in data set [1] is < 0.125 µg/mL. For the same molecule, the solubility at 24 h in data set [2] (aqueous buffer, pH 4.5 (Na citrate), read-out: Solubility at pH 4.5 (Na citrate)) is < 1 µg/mL; in data set [2] (aqueous buffer, pH 7.4 (PBS), read-out: Solubility at pH 7.4 (PBS)), < 1 µg/mL; in data set [2] (fassif, read-out: Solubility in FaSSIF) it was < 1 µg/mL; in data set [2] (fessif, read-out: Solubility in FeSSIF) it was 1 to 5 µg/mL (≈ 2.76 to 13.8 µM); in data set [2] (simulated gastric fluid, pH 1 (HCl), read-out: Solubility at pH 1 (HCl)), 5 to 10 µg/mL (≈ 13.8 to 27.6 µM).

Take `Cc1[nH]c(C)c(-c2cnc(-c3ccc(OC(F)(F)F)cc3)nc2)c(=O)c1Cl` [Example 51, 3-Chloro-2,6-dimethyl-5-{2-[4-(trifluoromethyloxy)phenyl]-5-pyrimidinyl}-4(1H)-pyridinone]: in data set [1], the IC50 was < 0.125 µg/mL. Also, the solubility at 24 h in data set [2] (setting [3]) is 1 to 5 µg/mL (≈ 2.53 to 12.6 µM); in data set [2] (setting [4]) it was 1 to 5 µg/mL (≈ 2.53 to 12.6 µM); in data set [2] (setting [7]), 5 to 10 µg/mL (≈ 12.6 to 25.3 µM); in data set [2] (setting [5]) it was < 1 µg/mL; in data set [2] (setting [6]), < 1 µg/mL.

In the case of `Cc1[nH]c(C)c(-c2ccc(-c3ccc4c(c3)OCO4)nc2)c(=O)c1Br` [Example 53], in data set [1], the 50% inhibitory concentration (IC50) was < 0.125 µg/mL. In addition, the solubility at 24 h was ≥ 50 µg/mL in data set [2] (setting [3]), 5 to 10 µg/mL (≈ 12.5 to 25 µM) in data set [2] (setting [4]), 1 to 5 µg/mL (≈ 2.5 to 12.5 µM) in data set [2] (setting [5]) and 5 to 10 µg/mL (≈ 12.5 to 25 µM) in data set [2] (setting [6]).

For the molecule `Cc1[nH]c(C)c(-c2ccc(-c3cc(C(F)(F)F)ccc3F)nc2)c(=O)c1Cl` [Example 56, 5-chloro-6′-[2-fluoro-5-(trifluoromethyl)phenyl]-2,6-dimethyl-3,3′-bipyridin-4(1H)-one], the half-inhibitory concentration (IC50) in data set [1] was < 0.125 µg/mL. In addition, the solubility at 24 h in data set [2] (setting [3]) is ≥ 50 µg/mL; in data set [2] (setting [4]) it was 1 to 5 µg/mL (≈ 2.52 to 12.6 µM); in data set [2] (setting [7]), 10 to 50 µg/mL (≈ 25.2 to 126 µM); in data set [2] (setting [5]), < 1 µg/mL; in data set [2] (setting [6]) it was < 1 µg/mL.

As to `Cc1[nH]c(C)c(-c2ccc(-c3cc(C(F)(F)F)ccc3Cl)nc2)c(=O)c1Cl` [Example 57, 5-chloro-6′-[2-chloro-5-(trifluoromethyl)phenyl]-2,6-dimethyl-3,3′-bipyridin-4(1H)-one], in data set [1], the IC50 was < 0.125 µg/mL. Also, the solubility at 24 h in data set [2] (setting [3]) is ≥ 50 µg/mL; in data set [2] (setting [4]), 5 to 10 µg/mL (≈ 12.1 to 24.2 µM); in data set [2] (setting [7]), 10 to 50 µg/mL (≈ 24.2 to 121 µM); in data set [2] (setting [5]), < 1 µg/mL; in data set [2] (setting [6]) it was < 1 µg/mL.

Regarding `Cc1[nH]c(C)c(-c2ccc(-c3ccc(C(F)(F)F)cc3F)nc2)c(=O)c1Cl` [Example 58, 5-chloro-6′-[2-fluoro-4-(trifluoromethyl)phenyl]-2,6-dimethyl-3,3′-bipyridin-4(1H)-one], in data set [1], the IC50 was < 0.125 µg/mL. For the same molecule, the solubility at 24 h was 10 to 50 µg/mL (≈ 25.2 to 126 µM) in data set [2] (setting [3]); < 1 µg/mL in data set [2] (setting [4]); 1 to 5 µg/mL (≈ 2.52 to 12.6 µM) in data set [2] (setting [7]); < 1 µg/mL in data set [2] (setting [5]); < 1 µg/mL in data set [2] (setting [6]).

Source of the values: patent US7579353B2, “Pyridinone derivatives against malaria” (Glaxo Group Limited, priority 2005, dated 2009).
